Experimental data: article PMC4433622 (Cancer research, 2015)
Numbering of substitutions follows the chain as printed. Names and notes keep the numbering of the source. Peptide text beside a SMILES is read from it. * marks the point of attachment. Cbz = O=C(OCc1ccccc1)*; CH2F = FC*

How the values were obtained:
RXRα-LBD [1] = target: T1, RXRα-LBD (Homo sapiens, UniProt P19793); assay: Ligand competition assay with [3H]9-cis-RA; format: binding
T1 sequence (P19793 223-462): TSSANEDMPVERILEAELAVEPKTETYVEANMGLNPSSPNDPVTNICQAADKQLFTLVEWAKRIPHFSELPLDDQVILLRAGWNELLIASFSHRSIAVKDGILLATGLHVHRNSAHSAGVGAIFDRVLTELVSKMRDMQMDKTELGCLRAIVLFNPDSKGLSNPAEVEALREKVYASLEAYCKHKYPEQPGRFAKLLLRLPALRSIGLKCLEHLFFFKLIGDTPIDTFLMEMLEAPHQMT

Gal4-DBD-RXRα-LBD = target: T2, Gal4-DBD-RXRα-LBD (Homo sapiens, UniProt P19793); assay: Mammalian one hybrid assay, Gal4-DBD-RXRα-LBD with pG5-luc reporter; format: cell-based; conditions: HEK293T cells; for Gal4-DBD-RXRα-LBD transcriptional activity (relative luciferase activity): 10 µM, 12 h
T2 sequence (P19793 227-458 limits assumed): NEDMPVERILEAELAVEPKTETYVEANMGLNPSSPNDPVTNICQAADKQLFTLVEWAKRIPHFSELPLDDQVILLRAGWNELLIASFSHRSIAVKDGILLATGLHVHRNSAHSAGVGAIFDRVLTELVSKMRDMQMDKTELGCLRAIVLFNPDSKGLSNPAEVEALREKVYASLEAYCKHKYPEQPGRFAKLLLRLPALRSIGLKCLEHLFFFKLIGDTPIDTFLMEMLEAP

RXRα-LBD [2] = target: T1, RXRα-LBD; assay: Differential scanning calorimetry; format: binding
RXRα-LBD [3] = target: T1, RXRα-LBD; assay: Non-denaturing PAGE of RXRα-LBD oligomers; conditions: Z compounds 10 µM, 9-cis-RA 0.5 µM, 3 h
GR = GR (Homo sapiens, UniProt P04150); assay: Mammalian one hybrid assay, GR chimeric reporter; format: cell-based; conditions: HEK293T cells, 5 µM, 12 h
[4] = test system: IκBα, IKKα/β in MCF-7 cells; assay: TNFα-induced IκBα degradation and IKKα/β phosphorylation, immunoblotting; format: cell-based, human; conditions: for TNFα-induced IKKα/β phosphorylation / TNFα-induced IκBα degradation: TNFα 10 ng/ml, Z-10 7.5 µM, Z-12 5 µM
Gal4-DBD-RARα-LBD = Gal4-DBD-RARα-LBD (Homo sapiens, UniProt P10276); assay: Mammalian one hybrid assay, Gal4-DBD-RARα-LBD; format: cell-based; conditions: HEK293T cells, 5 µM, 12 h
tRXRα with TRAF2 = tRXRα with TRAF2 (Homo sapiens, UniProt P19793); assay: TNFα-induced TRAF2/tRXRα complex formation, co-immunoprecipitation; conditions: HEK293T cells, 5 µM 1 h, TNFα 40 ng/ml 15 min
RXRα-LBD [5] = target: T1, RXRα-LBD; assay: Surface plasmon resonance; format: binding
RXRα homodimer = RXRα homodimer (Homo sapiens, UniProt P19793); assay: RXRE-luciferase reporter assay; conditions: HEK293T cells, 12 h
MCF-7 cells = assay: Apoptosis; format: cell-based, human; conditions: for apoptosis (PARP cleavage, nuclear fragmentation), agent alone / apoptosis (PARP cleavage, nuclear fragmentation) together with TNFα: MCF-7 cells, 9 h; for apoptosis (PARP cleavage, nuclear fragmentation) together with TNFα: with TNFα 10 ng/ml, Z-10 7.5 µM, Z-12 5 µM; for PARP cleavage induced by the combination of TNFα and Z compounds: effect of added agent on the combination
LXRα = LXRα (Homo sapiens, UniProt Q13133); assay: Mammalian one hybrid assay, LXRα chimeric reporter; format: cell-based; conditions: HEK293T cells, 5 µM, 12 h
tRXRα with p85α = assay: TNFα-induced interaction of tRXRα with p85α; format: cell-based
Gal4-DBD-RXRα-LBD C432S = Gal4-DBD-RXRα-LBD C432S (Homo sapiens, UniProt P19793, C432S); assay: Mammalian one hybrid assay, Gal4-DBD-RXRα-LBD C432S mutant; format: cell-based; conditions: HEK293T cells; 9-cis-RA 0.1 µM, Z-10 and Z-12 5 µM
Gal4-DBD-RXRα-LBD/R316E = Gal4-DBD-RXRα-LBD/R316E (Homo sapiens, UniProt P19793, R316E); assay: Mammalian one hybrid assay, Gal4-DBD-RXRα-LBD/R316E; format: cell-based; conditions: HEK293T cells; 9-cis-RA 0.1 µM, Z-10 and Z-12 5 µM
MCF-7 xenografts = MCF-7 xenografts in nude mice; format: in vivo, Nude mice (BALB/c); conditions: MCF-7 bearing mice, 30 mg/kg oral once a day
RARγ = RARγ (Homo sapiens, UniProt P13631); assay: Mammalian one hybrid assay, RARγ chimeric reporter; format: cell-based; conditions: HEK293T cells, 5 µM, 12 h
p65 in MCF-7 cells = assay: TNFα-induced p65 nuclear translocation, immunostaining; format: cell-based, human; conditions: 10 µM pretreatment 1 h, TNFα 10 ng/ml 30 min
PPARγ = PPARγ (Homo sapiens, UniProt P37231); assay: Mammalian one hybrid assay, PPARγ chimeric reporter; format: cell-based; conditions: HEK293T cells, 5 µM, 12 h
Gal4-DBD-ERα-LBD = Gal4-DBD-ERα-LBD (Homo sapiens, UniProt P03372); assay: Mammalian one hybrid assay, Gal4-DBD-ERα-LBD; format: cell-based; conditions: HEK293T cells, 5 µM, 12 h
Akt = conditions: by preventing the interaction of tRXRα and p85α; cited from earlier work
RIP1 in MCF-7 cells = assay: tRXRα-promoted TNFα-induced RIP1 ubiquitination; format: cell-based, human; conditions: 10 µM 1 h, TNFα 20 ng/ml 5 min
NFκB = NFκB reporter gene assay; format: cell-based
SEC = target: the molecule itself; assay: SEC

Chain of Gal4-DBD-ERα-LBD (P03372 311-547 limits assumed): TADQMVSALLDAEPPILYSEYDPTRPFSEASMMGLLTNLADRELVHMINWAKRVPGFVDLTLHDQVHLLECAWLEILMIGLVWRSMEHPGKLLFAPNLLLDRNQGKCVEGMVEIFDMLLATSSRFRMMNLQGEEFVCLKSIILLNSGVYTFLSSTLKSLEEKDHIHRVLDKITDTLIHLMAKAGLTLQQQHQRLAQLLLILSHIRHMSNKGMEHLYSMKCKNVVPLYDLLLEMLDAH
Chain of PPARγ (P37231 238-503 limits assumed, species assumed): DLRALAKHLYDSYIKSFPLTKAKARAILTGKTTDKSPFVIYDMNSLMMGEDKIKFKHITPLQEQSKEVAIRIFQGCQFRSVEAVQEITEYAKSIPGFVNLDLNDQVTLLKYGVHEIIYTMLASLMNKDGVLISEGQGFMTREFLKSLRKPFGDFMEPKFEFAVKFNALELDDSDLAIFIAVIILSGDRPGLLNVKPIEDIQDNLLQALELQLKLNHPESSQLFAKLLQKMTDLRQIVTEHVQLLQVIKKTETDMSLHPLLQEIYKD
Chain of LXRα (Q13133 209-447 limits assumed): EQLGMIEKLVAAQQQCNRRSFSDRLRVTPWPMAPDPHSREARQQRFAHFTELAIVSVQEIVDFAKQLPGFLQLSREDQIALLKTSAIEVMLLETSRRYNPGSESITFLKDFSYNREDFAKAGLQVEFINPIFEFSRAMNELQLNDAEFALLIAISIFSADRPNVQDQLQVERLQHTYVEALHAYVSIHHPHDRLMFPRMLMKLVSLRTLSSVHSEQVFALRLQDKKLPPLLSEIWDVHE
Chain of RARγ (P13631 185-419 limits assumed, species assumed): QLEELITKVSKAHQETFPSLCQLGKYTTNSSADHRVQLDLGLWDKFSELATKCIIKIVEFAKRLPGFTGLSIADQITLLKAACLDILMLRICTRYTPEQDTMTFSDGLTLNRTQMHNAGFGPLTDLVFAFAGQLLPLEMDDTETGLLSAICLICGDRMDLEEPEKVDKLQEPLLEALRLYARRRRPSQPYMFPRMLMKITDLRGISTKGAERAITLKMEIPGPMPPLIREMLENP
Chain of RXRα homodimer (P19793 whole entry, the tested form may be a part): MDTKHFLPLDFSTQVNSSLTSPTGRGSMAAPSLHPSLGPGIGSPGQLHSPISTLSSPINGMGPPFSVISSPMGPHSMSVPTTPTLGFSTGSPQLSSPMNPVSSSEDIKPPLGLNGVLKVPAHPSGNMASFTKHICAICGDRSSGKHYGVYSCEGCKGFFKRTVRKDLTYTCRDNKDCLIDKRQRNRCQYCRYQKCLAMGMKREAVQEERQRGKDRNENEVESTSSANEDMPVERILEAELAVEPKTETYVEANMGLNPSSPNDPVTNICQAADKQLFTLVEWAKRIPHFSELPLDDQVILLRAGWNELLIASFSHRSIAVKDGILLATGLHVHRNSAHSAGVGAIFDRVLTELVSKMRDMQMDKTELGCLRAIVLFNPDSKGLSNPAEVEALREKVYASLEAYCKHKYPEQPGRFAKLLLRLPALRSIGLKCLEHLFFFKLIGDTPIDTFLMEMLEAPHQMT
Chain of Gal4-DBD-RARα-LBD (P10276 183-417 limits assumed): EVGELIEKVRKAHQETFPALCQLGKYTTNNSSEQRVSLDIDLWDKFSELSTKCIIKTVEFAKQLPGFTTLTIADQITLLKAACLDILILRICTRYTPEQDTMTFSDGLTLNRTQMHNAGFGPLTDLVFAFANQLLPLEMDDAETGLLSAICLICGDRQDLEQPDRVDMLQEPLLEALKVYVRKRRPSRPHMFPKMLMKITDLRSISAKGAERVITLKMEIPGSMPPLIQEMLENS
Chain of GR (P04150 524-758 limits assumed): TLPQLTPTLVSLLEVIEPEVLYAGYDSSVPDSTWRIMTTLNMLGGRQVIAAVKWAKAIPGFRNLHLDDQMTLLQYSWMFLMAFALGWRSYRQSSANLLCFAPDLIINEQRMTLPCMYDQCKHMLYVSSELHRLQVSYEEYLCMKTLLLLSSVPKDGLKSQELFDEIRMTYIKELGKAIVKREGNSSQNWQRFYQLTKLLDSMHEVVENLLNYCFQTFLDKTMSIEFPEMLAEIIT
Chain of tRXRα with TRAF2 (P19793 81-462 limits assumed): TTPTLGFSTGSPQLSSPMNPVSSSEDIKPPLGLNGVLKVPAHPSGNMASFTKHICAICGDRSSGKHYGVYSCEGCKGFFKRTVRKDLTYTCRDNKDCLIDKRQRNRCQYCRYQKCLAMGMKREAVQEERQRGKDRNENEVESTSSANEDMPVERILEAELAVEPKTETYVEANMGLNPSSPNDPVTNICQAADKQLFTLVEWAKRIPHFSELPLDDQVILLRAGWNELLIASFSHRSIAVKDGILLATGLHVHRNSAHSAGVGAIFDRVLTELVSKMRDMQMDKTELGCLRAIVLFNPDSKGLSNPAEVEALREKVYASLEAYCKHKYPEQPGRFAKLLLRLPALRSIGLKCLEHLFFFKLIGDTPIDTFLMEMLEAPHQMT
Chain of Gal4-DBD-RXRα-LBD C432S (P19793 227-458 C432S limits assumed): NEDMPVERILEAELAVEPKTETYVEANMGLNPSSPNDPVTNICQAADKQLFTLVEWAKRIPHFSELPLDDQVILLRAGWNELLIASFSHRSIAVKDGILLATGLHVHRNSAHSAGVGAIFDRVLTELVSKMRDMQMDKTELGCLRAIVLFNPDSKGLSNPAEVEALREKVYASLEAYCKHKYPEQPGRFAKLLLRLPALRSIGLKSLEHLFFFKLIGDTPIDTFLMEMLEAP
Chain of Gal4-DBD-RXRα-LBD/R316E (P19793 227-458 R316E limits assumed): as the sequence (P19793 227-458 C432S limits assumed) above, with R90E, S206C counted along it

Molecule: O=[N+]([O-])/C=C/c1ccc2ccccc2c1 [Z-11, (E)-2-(2-nitrovinyl)naphthalene]
- IC50 (RXRα-LBD [1]): 330 nM
- Gal4-DBD-RXRα-LBD transcriptional activity (relative luciferase activity) (Gal4-DBD-RXRα-LBD): unable to activate RXRα
- Tm values of RXRα-LBD protein (DSC) (RXRα-LBD [2]): shifted higher
- RXRα-LBD tetramer/dimer formation on native gel (RXRα-LBD [3]): induced higher levels of RXRα-LBD oligomerization

Molecule: O=[N+]([O-])/C=C/c1c2ccccc2cc2ccccc12 [Z-12, (E)-9-(2-nitrovinyl)anthracene]
- activation of GR chimeric reporter (GR): neither of them significantly activated
- IC50 (RXRα-LBD [1]): 810 nM
- TNFα-induced IKKα/β phosphorylation ([4]; MCF-7 cells): significantly inhibited
- TNFα-induced IκBα degradation ([4]; MCF-7 cells): significantly inhibited
- effect on inhibiting TNFα-induced IκBα degradation when TRAF2 expression was suppressed by siRNA ([4]; MCF-7 cells, TRAF2 siRNA 36 h, TNFα 10 ng/ml 30 min): dramatically reduced
- activation of RARα chimeric reporter (Gal4-DBD-RARα-LBD): neither of them significantly activated
- TNFα-induced interaction of tRXRα with TRAF2 (tRXRα with TRAF2): strongly inhibited
- Kd (RXRα-LBD [5]): 1950 nM
- RXRα transactivation, dose dependence (Gal4-DBD-RXRα-LBD): dose-dependently activated
- RXRα transactivation relative to activity of 0.1 µM 9-cis-RA (Gal4-DBD-RXRα-LBD; compound at 10 µM, % of activity of 0.1 µM 9-cis-RA): about 50%
- Tm values of RXRα-LBD protein (DSC) (RXRα-LBD [2]): shifted higher
- effect on 9-cis-RA-induced RXRα homodimer transactivation (RXRα homodimer; 5 µM with 9-cis-RA 0.1 µM): inhibited 9-cis-RA-induced transactivation
- transactivation of RXRα homodimer (RXRE-luciferase) (RXRα homodimer; 5 µM): failed to induce the transactivation
- RXRα-LBD tetramer/dimer formation on native gel (RXRα-LBD [3]): induced homodimer formation
- apoptosis (PARP cleavage, nuclear fragmentation), agent alone (MCF-7 cells): did not happen
- apoptosis (PARP cleavage, nuclear fragmentation) together with TNFα (MCF-7 cells): significant apoptosis
- activation of LXRα chimeric reporter (LXRα): neither of them significantly activated
- inhibition of TNFα-induced interaction of tRXRα with p85α (tRXRα with p85α): could not inhibit
- activation of Gal4-DBD-RXRα-LBD with Cys432 mutated to Ser (Gal4-DBD-RXRα-LBD C432S): completely incapacitated
- transactivation of Gal4-DBD-RXRα-LBD/R316E (Gal4-DBD-RXRα-LBD/R316E): strongly activated
- tumor growth and apoptosis of cancer cells, compound alone (MCF-7 xenografts): Tumor growth inhibition and extensive apoptosis of cancer cells
- activation of RARγ chimeric reporter (RARγ): neither of them significantly activated
- TNFα-induced p65 nuclear translocation (p65 in MCF-7 cells): significantly inhibited
- activation of PPARγ chimeric reporter (PPARγ): neither of them significantly activated
- activation of ERα chimeric reporter (Gal4-DBD-ERα-LBD): neither of them significantly activated

Molecule: CC1=C(CC(=O)O)c2cc(F)ccc2/C1=C\c1ccc(C(C)C)cc1 [K-80003]
- inhibition of TNFα-induced Akt activation (Akt): could inhibit

Molecule: CC1=C(/C=C/C(C)=C\C=C\C(C)=C\C(=O)O)C(C)(C)CCC1 [9-cis-RA, 9-cis-retinoic acid]
- TNFα-induced IκBα degradation ([4]; MCF-7 cells): did not show apparent effects
- apoptosis (PARP cleavage, nuclear fragmentation) together with TNFα (MCF-7 cells): little effect
- PARP cleavage induced by the combination of TNFα and Z compounds (MCF-7 cells): able to suppress

Molecule: CCCCCOc1cc2c(cc1-c1cc(/C=C/C(=O)O)ccc1O)C(C)(C)CCC2(C)C [UVI3003]
- TNFα-induced IκBα degradation ([4]; MCF-7 cells): did not show apparent effects
- apoptosis (PARP cleavage, nuclear fragmentation) together with TNFα (MCF-7 cells): little effect
- PARP cleavage induced by the combination of TNFα and Z compounds (MCF-7 cells): able to suppress

Molecule: Cc1ccc(/C=C/[N+](=O)[O-])cc1 [Z-1, (E)-1-methyl-4-(2-nitrovinyl)benzene]
- Gal4-DBD-RXRα-LBD transcriptional activity (relative luciferase activity) (Gal4-DBD-RXRα-LBD): selectively activated

Molecule: COC(=O)C[C@H](NC(=O)[C@H](C)NC(=O)[C@@H](NC(=O)OCc1ccccc1)C(C)C)C(=O)CF [Z-VAD-FMK] (Cbz-Val-Ala-Asp(OMe)-CH2F)
- PARP cleavage induced by the combination of TNFα and Z compounds (MCF-7 cells): completely blocked

Molecule: TNFα
- apoptosis (PARP cleavage, nuclear fragmentation), agent alone (MCF-7 cells): did not happen

Molecule: CD3254
- TNFα-induced IκBα degradation ([4]; MCF-7 cells): did not show apparent effects
- apoptosis (PARP cleavage, nuclear fragmentation) together with TNFα (MCF-7 cells): little effect
- PARP cleavage induced by the combination of TNFα and Z compounds (MCF-7 cells): able to suppress

Molecule: O=[N+]([O-])/C=C/c1cccc2ccccc12 [Z-10, (E)-1-(2-nitrovinyl)naphthalene]
- activation of GR chimeric reporter (GR): neither of them significantly activated
- inhibitory effect on TNFα-induced IκBα degradation, MCF-7 versus H460 cells ([4]; 7.5 µM 1 h, TNFα 30 min, MCF-7 express higher RXRα and tRXRα than H460): stronger in MCF-7 cells
- TNFα-induced IKKα/β phosphorylation ([4]; MCF-7 cells): significantly inhibited
- TNFα-induced IκBα degradation ([4]; MCF-7 cells): significantly inhibited
- RXRα/Δ80-promoted TNFα-induced RIP1 ubiquitination (RIP1 in MCF-7 cells): largely blocked
- activation of RARα chimeric reporter (Gal4-DBD-RARα-LBD): neither of them significantly activated
- inhibition of NFκB activation by TNFα (reporter gene assay) (NFκB): dose-dependently inhibited
- apoptosis (PARP cleavage, nuclear fragmentation), agent alone (MCF-7 cells): did not happen
- apoptosis (PARP cleavage, nuclear fragmentation) together with TNFα (MCF-7 cells): significant apoptosis
- activation of LXRα chimeric reporter (LXRα): neither of them significantly activated
- tumor growth and apoptosis of cancer cells, compound alone (MCF-7 xenografts): Tumor growth inhibition and extensive apoptosis of cancer cells
- activation of RARγ chimeric reporter (RARγ): neither of them significantly activated
- TNFα-induced p65 nuclear translocation (p65 in MCF-7 cells): significantly inhibited
- activation of PPARγ chimeric reporter (PPARγ): neither of them significantly activated
- activation of ERα chimeric reporter (Gal4-DBD-ERα-LBD): neither of them significantly activated

B1: RXRα-LBD/C432W (domain or fragment, human, UniProt P19793 223-462, looked up)
chain: T1 sequence (P19793 223-462) with C210W
- stoichiometry N (SEC): 2
